Reference: patent US11524021B2, “Use of ginsenoside M1 for manufacturing medicament for treating oral cancer” (priority 2018, dated 2022)

Tests used:
[1] = Body weight of SAS xenograft mice; format: in vivo, BALB/c nude (nu/nu) mice; conditions: 5 successive days
Method: FIGS. 6A-6C show oral administration of ginsenoside M1 reduced human oral cancer growth in mice. Human oral cancer cell line SAS cells Xenografts mice with tumor size around 40˜60 mm^3 were given a daily oral administration of either ginsenoside M1 (30-90 mg/kg) or vehicle for 5 successive days. (FIG. 6A) The tumor volume was determined by measurement of the length (L) and width (W) of the tumor and calculated as tumor volume (mm3)=(L×W^2)/2. (FIG. 6B) The tumor weight was measured after the mice were scarified. (FIG. 6C) The body weight of mice was recorded. The data were expressed as mean±SD; n=6. ** and *** indicate a significant difference at the level of p<0.01 and p<0.001, respectively, compared to vehicle-control mice. […]
FIGS. 7A-7C show subcutaneous (SC) injection of ginsenoside M1 reduced human oral cancer growth in mice. […] (FIG. 7A) The tumor volume was determined by measurement of the length (L) and width (W) of the tumor and calculated as tumor volume (mm3)=(L×W^2)/2. (FIG. 7B) The tumor weight was measured after the mice were scarified. (FIG. 7C) The body weight of mice was recorded. The data were expressed as mean±SD; n=6. ** indicates a significant difference at the level of p<0.01, compared to vehicle-control mice. […]
To evaluate the anti-cancer activity of ginsenoside M1 in vivo, human oral cancer xenografts were used. […] The TV on day n (TVn) was calculated as TV (mm3)=(L×W^2)/2. […]

[2] = tested on: human oral cancer cells SAS; test: Viability of human oral cancer SAS cells, Trypan blue exclusion; format: cell-based; conditions: 5˜20 μg/ml, 24 h
Method: Human oral cancer cell line SAS cells (FIG. 1A) or OECM-1 cells (FIG. 1B) were incubated for 24 h with ginsenoside M1 (5˜20 μg/ml), ginsenoside Rh2 (5˜20 μg/ml) or vehicle (0.1% DMSO). The live cell numbers were counted by Trypan blue exclusion method. The data were expressed as mean±SD; n=3. *, ** and *** indicate a significant difference at the level of p<0.05, p<0.01 and p<0.001, respectively, compared to vehicle-control cells. (One-way ANOVA with Dunnett's multiple comparisons test).
Plate 5×10^5 human oral cancer cells SAS per 6-cm dish in 2 ml of culture medium and were grown overnight at 37° C. in a 5% CO2 incubator. The cells were incubated for 24 h with ginsenoside M1 (5˜20 μg/ml), ginsenoside Rh2 (5˜20 μg/ml) or vehicle. Each group contains a final DMSO concentration of 0.1%. Thereafter, the cell numbers were counted by Trypan blue exclusion method. […] The data were expressed as mean±SD; n=3. *, ** and *** indicate a significant difference at the level of p<0.05, p<0.01 and p<0.001, respectively, compared to vehicle-control cells. (One-way ANOVA with Dunnett's multiple comparisons test).

[3] = tested on: human oral cancer cells OECM-1; test: Colony formation of OECM-1 cells; format: cell-based; conditions: 5˜20 μg/ml, 10 days
Method: FIGS. 4A-4B show ginsenoside M1 reduced the colony formation ability of human oral cancer cells. Human oral cancer cell line SAS cells (FIG. 4A) or OECM-1 cells (FIG. 4B) were incubated for 10 days with ginsenoside M1 (5˜20 μg/ml) or vehicle (0.1% DMSO). The cells were fixed in 4% ice-cold paraformaldehyde and stained with 0.1% crystal violet, and the colonies were counted. The data were expressed as mean±SD; n=4. * and *** indicate a significant difference at the level of p<0.05 and p<0.001, respectively, compared to vehicle-control cells. (One-way ANOVA with Dunnett's multiple comparisons test).
Plate 150 human oral cancer cells SAS or OECM-1 per 6-cm dish in 3 ml of culture medium and were grown overnight at 37° C. in a 5% CO2 incubator. The cells were incubated for 10 days with ginsenoside M1 (5˜20 μg/ml) or vehicle. The cells were changed for fresh medium containing the same concentration of ginsenoside M1 at day 5. The cells were fixed in 4% ice-cold paraformaldehyde for 15 min at […], and stained with 0.1% crystal violet 10 min at room temperature. […] The data were expressed as mean±SD; n=4. * and *** indicate a significant difference at the level of p<0.05 and p<0.001, respectively, compared to vehicle-control cells. (One-way ANOVA with Dunnett's multiple comparisons test).

[4] = tested on: human oral cancer SAS cells; test: Caspase-9 and caspase-3 activation, degradation of pro-caspases by Western blotting; format: cell-based; conditions: 10˜20 μg/ml, 24 h

## CC(C)=CCC[C@](C)(O[C@@H]1OC(CO)[C@@H](O)[C@@H](O)C1O)[C@H]1CC[C@]2(C)C1[C@H](O)CC1[C@@]3(C)CC[C@H](O)C(C)(C)C3CC[C@]12C (stereo partly drawn) [ginsenoside M1, 20-O-β-D-glucopyranosyl-20(S)-protopanaxadiol]
[1]; SC injection 20 mg/kg daily
  body weight of mice: did not significantly affect
[1]; oral 30-90 mg/kg daily
  body weight of mice: did not significantly affect
[2]
  cell numbers of human oral cancer SAS cells: dose-dependently inhibited
[3]
  colony formation ability of OECM-1 cells: dose-dependently inhibited
[4]
  precursor of caspase-3 (pro-caspase-3) level: decrease of the precursors of caspase-3 and caspase-9 in a dose-dependent manner
  precursor of caspase-9 (pro-caspase-9) level: decrease of the precursors of caspase-3 and caspase-9 in a dose-dependent manner
